# pEC50, pIC50: −log10 of the molar value.
# Legend:
# [1] = biological target: human DGKζ (Homo sapiens (Human), UniProt Q13574); assay: DGKζ LIPGLO assay (extruded liposome substrate, ADP-Glo luminescence); assay type: biochemical; details: liposome (LIPGLO) assay; read-out: DGK zeta (liposome assay) IC50
# [2] = biological target: human DGKα (Homo sapiens (Human), UniProt P23743); assay: DGKα ADPGLO assay (detergent/lipid micelle substrate); assay type: biochemical; details: ADPGLO assay; read-out: DGK alpha ADPGLO IC50
# human DGKα, sequence (P23743 whole entry, looked up, the tested form may be a part): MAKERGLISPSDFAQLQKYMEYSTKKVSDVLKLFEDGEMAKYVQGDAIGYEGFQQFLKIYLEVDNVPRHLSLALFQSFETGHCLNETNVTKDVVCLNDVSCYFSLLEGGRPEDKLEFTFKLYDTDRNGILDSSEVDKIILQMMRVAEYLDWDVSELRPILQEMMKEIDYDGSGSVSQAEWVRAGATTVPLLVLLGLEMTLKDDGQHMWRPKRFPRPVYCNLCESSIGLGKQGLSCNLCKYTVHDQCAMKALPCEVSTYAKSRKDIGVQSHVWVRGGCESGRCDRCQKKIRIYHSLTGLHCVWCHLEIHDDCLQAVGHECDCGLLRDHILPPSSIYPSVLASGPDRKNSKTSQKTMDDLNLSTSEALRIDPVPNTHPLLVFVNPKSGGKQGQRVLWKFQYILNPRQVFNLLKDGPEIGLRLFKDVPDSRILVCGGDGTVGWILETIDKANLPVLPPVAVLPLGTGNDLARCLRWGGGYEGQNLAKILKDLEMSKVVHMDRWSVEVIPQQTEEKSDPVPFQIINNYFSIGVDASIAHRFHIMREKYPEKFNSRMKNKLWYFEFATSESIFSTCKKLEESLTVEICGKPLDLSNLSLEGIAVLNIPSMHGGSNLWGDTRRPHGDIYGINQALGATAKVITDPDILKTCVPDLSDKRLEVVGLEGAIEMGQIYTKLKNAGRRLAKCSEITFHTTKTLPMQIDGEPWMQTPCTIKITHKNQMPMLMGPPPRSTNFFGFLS
# Description: DGK Alpha ADPGLO (Truncated) IC50 (uM)
# The detergent/lipid micelle was prepared by combining 15 g phosphatidylserine (Avanti 840035P) and 1 g diacylglycerol (8008110) and dissolving into 150 mL chloroform in a 2 L round bottom flask. Chloroform was removed under high vacuum by rotary evaporation. […] The lipid/detergent solution was split into 5 mL aliquots and stored at −80° C.
# [3] = tested on: whole blood (pERK); assay: pERK Whole Blood; assay type: cell-based
# human DGKζ, sequence (Q13574 other isoform, or with tags, fused parts or gaps): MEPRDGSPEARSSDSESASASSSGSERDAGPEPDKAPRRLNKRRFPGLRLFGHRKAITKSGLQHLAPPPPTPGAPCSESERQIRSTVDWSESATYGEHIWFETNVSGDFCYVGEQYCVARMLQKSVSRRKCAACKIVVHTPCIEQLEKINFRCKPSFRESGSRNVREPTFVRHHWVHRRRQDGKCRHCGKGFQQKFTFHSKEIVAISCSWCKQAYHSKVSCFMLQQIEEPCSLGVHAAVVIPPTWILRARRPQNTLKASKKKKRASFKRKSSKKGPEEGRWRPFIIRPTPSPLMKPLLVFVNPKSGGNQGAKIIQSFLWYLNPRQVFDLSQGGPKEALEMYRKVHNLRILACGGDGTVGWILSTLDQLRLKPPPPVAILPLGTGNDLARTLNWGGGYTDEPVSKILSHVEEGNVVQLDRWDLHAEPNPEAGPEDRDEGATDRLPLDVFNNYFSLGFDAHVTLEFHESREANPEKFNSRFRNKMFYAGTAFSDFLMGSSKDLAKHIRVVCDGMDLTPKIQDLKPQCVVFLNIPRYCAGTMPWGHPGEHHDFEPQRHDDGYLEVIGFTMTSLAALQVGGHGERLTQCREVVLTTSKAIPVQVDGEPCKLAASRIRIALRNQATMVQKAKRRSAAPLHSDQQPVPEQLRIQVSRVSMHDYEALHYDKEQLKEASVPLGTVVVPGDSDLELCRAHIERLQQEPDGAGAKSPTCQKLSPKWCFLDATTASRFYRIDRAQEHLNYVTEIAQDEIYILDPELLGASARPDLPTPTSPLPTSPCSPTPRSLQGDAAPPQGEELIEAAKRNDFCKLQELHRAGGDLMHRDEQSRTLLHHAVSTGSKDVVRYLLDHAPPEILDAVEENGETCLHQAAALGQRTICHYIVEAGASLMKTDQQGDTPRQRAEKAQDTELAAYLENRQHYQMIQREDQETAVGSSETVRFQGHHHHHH
SMILES,pIC50 [1],pIC50 [2],pEC50 [3]
"CC[C@H]1CN(C(C)c2ccc(C(F)(F)F)cc2)[C@H](CC)CN1c1nc(=O)n(C)c2ccc(C(F)F)nc12 (stereo partly drawn) [Example 439, 4-((2S,5R)-2,5-Diethyl-4-(1-(4-(trifluoromethyl)phenyl)ethyl)piperazin-1-yl)-6-(difluoromethyl)-1-methylpyrido[3,2-d]pyrimidin-2(1H)-one]",6.40,6.44,4.96
"CCC(N1C[C@H](C)N(c2nc(=O)n(C)c3ccc(C#N)nc23)C[C@H]1C)C12CC(C(F)(F)F)(C1)C2 (single isomer, unassigned) [Example 449]",5.39,5.13,4.70
"CC[C@H]1CN(C(C)c2ccc(C(F)(F)F)cc2)[C@H](CC)CN1c1nc(=O)n(C)c2ccc(C(F)F)nc12 (stereo partly drawn) [Example 440, 4-((2S,5R)-2,5-Diethyl-4-(1-(4-(trifluoromethyl)phenyl)ethyl)piperazin-1-yl)-6-(difluoromethyl)-1-methylpyrido[3,2-d]pyrimidin-2(1H)-one]",4.35,5.94,5.09
"CCC(N1C[C@H](C)N(c2nc(=O)n(C)c3ccc(C#N)nc23)C[C@H]1C)C12CC(C(F)(F)F)(C1)C2 (single isomer, unassigned) [Example 448]",5.29,4.87,4.70
"CC[C@@H]1CN(c2nc(=O)n(C)c3ccc(C#N)nc23)[C@@H](C)CN1C(c1ccc(OC)cc1)C(C)C (stereo partly drawn) [Example 314, 4-((2S,5R)-5-ethyl-4-(1-(4-methoxyphenyl)-2-methylpropyl)-2-methylpiperazin-1-yl)-1-methyl-2-oxo-1,2-dihydropyrido[3,2-d]pyrimidine-6-carbonitrile]",8.40,7.60,7.30
"CCC1CN(c2nc(=O)n(C)c3ccc(C#N)nc23)[C@@H](C)CN1C(C)c1ccc(C(F)(F)F)c(CN2CCOCC2)c1 (single isomer, unassigned) [Example 351]",5.98,6.74,6.42
"CC[C@@H]1CN(c2nc(=O)n(C)c3ccc(C(F)F)nc23)[C@@H](C)CN1C(C)c1ccc(C(F)(F)F)cc1 (stereo partly drawn) [Example 441, 6-(difluoromethyl)-4-((2S,5R)-5-ethyl-2-methyl-4-(1-(4-(trifluoromethyl)phenyl)ethyl)piperazin-1-yl)-1-methylpyrido[3,2-d]pyrimidin-2(1H)-one]",4.57,6.72,6.15
"CC[C@@H]1CN(c2nc(=O)n(C)c3ccc(C#N)nc23)[C@@H](C)CN1C(c1ccc(OC(C)C)cc1)C(C)C (stereo partly drawn) [Example 324, 4-((2S,5R)-5-ethyl-4-(1-(4-isopropoxyphenyl)-2-methylpropyl)-2-methylpiperazin-1-yl)-1-methyl-2-oxo-1,2-dihydropyrido[3,2-d]pyrimidine-6-carbonitrile]",6.70,6.07,5.38
"CC(c1ccc(CN2CC3(COC3)C2)cc1)N1C[C@H](C)N(c2nc(=O)n(C)c3ccc(C#N)nc23)C[C@H]1C (stereo partly drawn) [Example 392, 4-((2S,5R)-4-(1-(4-((2-oxa-6-azaspiro[3.3]heptan-6-yl)methyl)phenyl)ethyl)-2,5-dimethylpiperazin-1-yl)-1-methyl-2-oxo-1,2-dihydropyrido[3,2-d]pyrimidine-6-carbonitrile]",4.47,5.55,5.16

# Continued, values first:
pIC50 [1],pIC50 [2],pEC50 [3],SMILES
6.02,6.49,5.70,"CCC(c1ccc(OCc2nccs2)cc1)N1C[C@H](C)N(c2nc(=O)n(C)c3ccc(C#N)nc23)C[C@H]1CC (stereo partly drawn) [Example 347, 4-((2S,5R)-5-ethyl-2-methyl-4-(1-(4-(thiazol-2-ylmethoxy)phenyl)propyl)piperazin-1-yl)-1-methyl-2-oxo-1,2-dihydropyrido[3,2-d]pyrimidine-6-carbonitrile]"
6.21,6.38,6.03,"CCC(c1ccc(F)c(F)c1)N1C[C@H](C)N(c2nc(=O)n(C)c3ccc(C#N)nc23)C[C@H]1CC (stereo partly drawn) [Example 320, 4-((2S,5R)-4-(1-(3,4-difluorophenyl)propyl)-5-ethyl-2-methylpiperazin-1-yl)-1-methyl-2-oxo-1,2-dihydropyrido[3,2-d]pyrimidine-6-carbonitrile]"
7.35,7.21,5.71,"CCC(c1ccc(OCc2nccs2)cc1)N1C[C@H](C)N(c2nc(=O)n(C)c3ccc(C#N)nc23)C[C@H]1CC (stereo partly drawn) [Example 348, 4-((2S,5R)-5-ethyl-2-methyl-4-(1-(4-(thiazol-2-ylmethoxy)phenyl)propyl)piperazin-1-yl)-1-methyl-2-oxo-1,2-dihydropyrido[3,2-d]pyrimidine-6-carbonitrile]"
7.48,7.42,6.03,"CCC(c1ccc(C2OCCO2)cc1)N1C[C@H](C)N(c2nc(=O)n(C)c3ccc(C#N)nc23)C[C@H]1CC (stereo partly drawn) [Example 331, 4-((2S,5R)-4-(1-(4-(1,3-dioxolan-2-yl)phenyl)propyl)-5-ethyl-2-methylpiperazin-1-yl)-1-methyl-2-oxo-1,2-dihydropyrido[3,2-d]pyrimidine-6-carbonitrile]"
4.77,5.00,4.70,"CCC(c1ccc(OCC2CN(C)C2)cc1)N1C[C@H](C)N(c2nc(=O)n(C)c3ccc(C#N)nc23)C[C@H]1CC (stereo partly drawn) [Example 344, 4-((2 S, 5R)-5-ethyl-2-methyl-4-(1-(4-((1-methylazetidin-3-yl)methoxy)phenyl)propyl)piperazin-1-yl)-1-methyl-2-oxo-1,2-dihydropyrido[3,2-d]pyrimidine-6-carbonitrile]"
7.55,7.96,6.64,"CCOc1ccc(C(CC)N2C[C@H](C)N(c3nc(=O)n(C)c4ccc(C#N)nc34)C[C@H]2CC)cc1 (stereo partly drawn) [Example 306, 4-((2S,5R)-4-(1-(4-ethoxyphenyl)propyl)-5-ethyl-2-methylpiperazin-1-yl)-1-methyl-2-oxo-1,2-dihydropyrido[3,2-d]pyrimidine-6-carbonitrile]"
7.66,7.28,6.89,"CCC(c1ccc(F)c(F)c1)N1C[C@H](C)N(c2nc(=O)n(C)c3ccc(C#N)nc23)C[C@H]1CC (stereo partly drawn) [Example 319, 4-((2S,5R)-4-(1-(3,4-difluorophenyl)propyl)-5-ethyl-2-methylpiperazin-1-yl)-1-methyl-2-oxo-1,2-dihydropyrido[3,2-d]pyrimidine-6-carbonitrile]"
6.92,7.60,6.85,"CCC(c1ccc(OCCC(F)(F)F)cc1)N1C[C@H](C)N(c2nc(=O)n(C)c3ccc(C#N)nc23)C[C@H]1CC (single isomer, unassigned) [Example 335]"
7.33,6.12,4.70,"CCOC[C@@H]1CN(c2nc(=O)n(C)c3ccc(C#N)nc23)[C@@H](C)CN1C(CC)c1ccc(C(F)(F)F)cc1 (stereo partly drawn) [Example 400, 4-((2S,5S)-5-(ethoxymethyl)-2-methyl-4-(1-(4-(trifluoromethyl)phenyl)propyl)piperazin-1-yl)-1-methyl-2-oxo-1,2-dihydropyrido[3,2-d]pyrimidine-6-carbonitrile]"

# Reference: US11584747B2, “Substituted pyridopyrimidinonyl compounds useful as T cell activators” (BRISTOL-MYERS SQUIBB COMPANY, priority 2019, dated 2023)
